Experimental data taken from patent publication US11345702B1 (Myoforte Therapeutics, Inc., priority 2020, dated 2022).

Target: 15-PGDH/HPGD (Homo sapiens (Human), UniProt P15428)
Experiment: hPGDH inhibitor screening biochemical assay
Conditions: read-out: hPGDH: Average IC50
Procedure, shortened: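 Recombinant human 15-PGDH (10 nM) pre-incubated with compounds 10 min at 37 °C, then 15 μM PGE2 and 0.25 mM NAD+ added for 10 min at room temperature in 50 mM Tris-HCl pH 7.5, 0.01% Tween 20. NADH fluorescence read at ex/em 340/485 nm. IC50 from 10-point curves, four-parameter fit versus 1% DMSO.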

Chain of 15-PGDH/HPGD (P15428 whole entry): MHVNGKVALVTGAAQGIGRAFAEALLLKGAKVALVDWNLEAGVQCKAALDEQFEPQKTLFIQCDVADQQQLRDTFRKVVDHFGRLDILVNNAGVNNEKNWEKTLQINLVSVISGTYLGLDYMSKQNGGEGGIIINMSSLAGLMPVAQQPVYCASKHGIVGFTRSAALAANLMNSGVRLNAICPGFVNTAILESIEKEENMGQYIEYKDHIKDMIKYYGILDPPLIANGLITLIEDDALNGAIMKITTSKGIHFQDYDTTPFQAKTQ

IC50 [nM] | SMILES
< 100 | COc1ccc(-n2cnc3cc(C(=O)N4CCCCC4)ccc32)cc1 [MF-PGDH-008]
≥ 1000 | O=C(c1ccc2c(c1)ncn2-c1cccc(Cl)c1)N1CCC(O)C1 (centres unmarked) [MF-PGDH-050]
< 100 | CCOC(=O)Cc1nc2cc(C(=O)N3CCCCC3)ccc2n1-c1cccc(Cl)c1 [MF-PGDH-030, ethyl 2-(1-(3-chlorophenyl)-5-(piperidine-1-carbonyl)-1H-benzo[d]imidazol-2-yl)acetate]
100 to 1000 | CC1(C)CN(C(=O)c2ccc3c(c2)ncn3-c2cccc(Cl)c2)C1 [MF-PGDH-105]
< 100 | CN(C)c1ccc(-n2ccc3cc(C(=O)N4CCC(F)CC4)cnc32)cc1 [MF-DH-346]
< 100 | NC(=O)c1ccc(-n2ccc3cc(C(=O)N4CCC(F)CC4)cnc32)cc1 [MF-DH-343]
< 100 | Nc1cc(-n2ccc3cc(C(=O)N4CCCCC4)cnc32)ccn1 [MF-DH-317]
< 100 | O=C(c1ccc(-n2ccc3cc(C(=O)N4CCC(F)(F)CC4)cnc32)cc1)N(CCO)CCO [MF-DH-451]
< 100 | COc1ccc(Cn2cc3cc(-n4ccc5cc(C(=O)N6CCCCC6)cnc54)ccc3n2)cc1 [MF-DH-340]
< 100 | N#Cc1ccc(-n2cc(Cl)c3cc(C(=O)N4CCC(F)CC4)cnc32)cc1 [MF-DH-388]
< 100 | Cn1cc(-c2cccc(Cl)c2)c2ccc(C(=O)N3CCCCC3)cc21 [MF-PGDH-054, (3-(3-chlorophenyl)-1-methyl-1H-indol-6-yl)(piperidin-1-yl)methanone]
< 100 | O=C(c1cnc2c(ccn2-c2ccc(O)nc2)c1)N1CCCCC1 [MF-DH-321]
< 100 | COc1ccc(-n2cc(Cl)c3cc(C(=O)N4CCC(F)CC4)cnc32)cc1 [MF-DH-191, (3-chloro-1-(4-methoxyphenyl)-1H-pyrrolo[2,3-b]pyridin-5-yl)(4-fluoropiperidin-1-yl)methanone]
< 100 | O=C(c1cnc2c(ccn2-c2c[nH]cn2)c1)N1CCCCC1 [MF-PGDH-075]
< 100 | O=C(O)c1cncc(-n2ccc3cc(C(=O)N4CCC(F)(F)CC4)cnc32)c1 [MF-DH-425, 5-(5-(4,4-difluoropiperidine-1-carbonyl)-1H-pyrrolo[2,3-b]pyridin-1-yl)nicotinic acid]
< 100 | CS(=O)(=O)c1cccc(-n2ccc3cc(C(=O)N4CCCCC4)cnc32)c1 [MF-DH-309]
100 to 1000 | COc1ccc(Cn2cnc(-n3ccc4cc(C(=O)N5CCCCC5)cnc43)c2)cc1 [MF-DH-128]
< 100 | COc1ccc(-n2cnc3cc(C(=O)N4CCC(F)CC4)ccc32)cc1 [MF-PGDH-009]
< 100 | O=C(O)Cc1ccc(-n2ccc3cc(C(=O)N4CCC(F)(F)CC4)cnc32)cc1 [MF-DH-426, 2-(4-(5-(4,4-difluoropiperidine-1-carbonyl)-1H-pyrrolo[2,3-b]pyridin-1-yl)phenyl)acetic acid]
< 100 | Nc1ccc(-n2ccc3cc(C(=O)N4CCCCC4)cnc32)cn1 [MF-DH-336]
< 100 | O=C(O)c1ccc(-n2ccc3cc(C(=O)N4CCCCC4)cnc32)cc1 [MF-DH-433, 4-(5-(piperidine-1-carbonyl)-1H-pyrrolo[2,3-b]pyridin-1-yl)benzoic acid]
< 100 | O=C(c1ccc(COc2ccccc2Cl)cc1)N1CCCCC1 [MF-PGDH-037]
< 100 | O=C(c1ccc2c(c1)ncn2-c1cccc(Cl)c1)N1CC2CCCC2C1 (centres unmarked) [MF-PGDH-015]
< 100 | NC(=O)c1ccc(-n2ccc3cc(C(=O)N4CCC(F)(F)CC4)cnc32)cc1 [MF-DH-394]
< 100 | COc1ccc(-n2cc(Cl)c3cc(C(=O)N4CCCCC4)cnc32)cc1 [MF-DH-239]
< 100 | O=C(c1cnc2c(ccn2-c2cccc(Cl)c2)c1)N1CCCCC1 [MF-PGDH-014]
< 100 | O=C(c1ccc2c(c1)ncn2-c1cccc(Cl)c1)N1CC2CCC(C2)C1 [MF-PGDH-018]

IC50 [nM] | SMILES
≥ 1000 | N#Cc1ccc(-n2ccc3cc(C(=S)N4CCC(F)(F)CC4)cnc32)cc1 [MF-DH-449, 4-(5-(4,4-difluoropiperidine-1-carbonothioyl)-1H-pyrrolo[2,3-b]pyridin-1-yl)benzonitrile]
< 100 | COc1cccc(-n2cc(Cl)c3cc(C(=O)N4CCCCC4)cnc32)c1 [MF-DH-273]
< 100 | O=C(c1cnc2c(c1)c(Cl)cn2-c1cncnc1)N1CCC(F)CC1 [MF-DH-145]
100 to 1000 | COc1ccc(-n2c(C3CC3)nc3cc(C(=O)N4CCCCC4)ccc32)cc1 [MF-PGDH-021]
< 100 | O=C(c1cnc2c(ccn2-c2ccncn2)c1)N1CCCCC1 [MF-PGDH-069]
< 100 | O=C(Nc1cc(C2CC2)[nH]n1)c1cncc(-n2ccc3cc(C(=O)N4CCC(F)(F)CC4)cnc32)c1 [MF-DH-501, N-(5-cyclopropyl-1H-pyrazol-3-yl)-5-(5-(4,4-difluoropiperidine-1-carbonyl)-1H-pyrrolo[2,3-b]pyridin-1-yl)nicotinamide]
100 to 1000 | CCc1nc2cc(C(=O)N3CCC(F)CC3)cnc2n1-c1ccc(OC)cc1 [MF-DH-184]
100 to 1000 | COc1ccc(Cn2cc(-n3ccc4cc(C(=O)N5CCCCC5)cnc43)cn2)cc1 [MF-DH-129]
< 100 | O=C(c1cnc2c(ccn2-c2cccnc2)c1)N1CCCCC1 [MF-PGDH-068]
100 to 1000 | O=C(c1ccc2c(c1)CCC(=O)N2c1cccc(Cl)c1)N1CCCCC1 [MF-PGDH-058, 1-(3-chlorophenyl)-6-(piperidine-1-carbonyl)-3,4-dihydroquinolin-2(1H)-one]
< 100 | O=C(c1ccc2c(c1)ncn2-c1cccc(Cl)c1)N1CC2(CCC2)C1 [MF-PGDH-019]
< 100 | CS(=O)(=O)c1ccc(-n2ccc3cc(C(=O)N4CCCCC4)cnc32)cc1 [MF-DH-310]
100 to 1000 | COc1ccc(-n2c(N)nc3cc(C(=O)N4CCC(F)CC4)cnc32)cc1 [MF-DH-115]
≥ 1000 | COc1ccc(-n2c(CCNC(C)=O)nc3cc(C(=O)N4CCC(F)CC4)cnc32)cc1 [MF-DH-117]
100 to 1000 | CCn1cnc(-n2ccc3cc(C(=O)N4CCCCC4)cnc32)c1 [MF-PGDH-073]
< 100 | O=C(c1cnc2c(ccn2-c2cscn2)c1)N1CCCCC1 [MF-PGDH-074]
< 100 | CNC(=O)c1cncc(-n2ccc3cc(C(=O)N4CCCCC4)cnc32)c1 [MF-DH-362]
< 100 | O=C(c1ccc2c(ccn2-c2cccc(Cl)c2)c1)N1CCCCC1 [MF-PGDH-004]
≥ 1000 | N#Cc1ccc(-n2ccc3cc(C(=O)N4CCC(F)CC4)ncc32)cc1 [MF-DH-463, 4-(5-(4-fluoropiperidine-1-carbonyl)-1H-pyrrolo[2,3-c]pyridin-1-yl)benzonitrile]
< 100 | COCCNC(=O)c1ccc(-n2ccc3cc(C(=O)N4CCCCC4)cnc32)cc1 [MF-DH-367]
≥ 1000 | O=C(c1ccc(COc2ccccc2Cl)cn1)N1CCC(F)CC1 [MF-DH-121, (5-((2-chlorophenoxy)methyl)pyridin-2-yl)(4-fluoropiperidin-1-yl)methanone]
100 to 1000 | COc1ccc(-c2c[nH]c3cc(C(=O)N4CCC(F)CC4)cnc23)cc1 [MF-DH-204]
< 100 | N#Cc1ccc(-n2ccc3cc(C(=O)N4CCC(F)(F)CC4)cnc32)cc1O [MF-DH-441]
< 100 | O=C(c1ccc(COc2ccccc2Br)cc1)N1CCCCC1 [MF-PGDH-036]
< 100 | N#Cc1ccc(-n2cnc3cc(C(=O)N4CC(Cl)C4)cnc32)cc1 [MF-DH-443]
< 100 | COc1ccc(-n2cnc3cc(C(=O)N4CCCCC4)ccc32)nc1 [MF-PGDH-022]
